What all share (assay type): physicochemical
Data set [1] is described as follows: Intrinsic dissolution rate of eplerenone polymorph samples. On the procedure:
Intrinsic dissolution rates were measured for the following four eplerenone polymorph samples: (i) Form L eplerenone prepared by direct crystallization from acetonitrile using water as an anti-solvent in the same manner as in Example 11, Procedure B; (ii) Form H eplerenone prepared by digestion in ethanol in the same manner as in Example 10, Procedure A, (iii) a mixture of 5% Form H and 95% Form L; and (iv) Form L eplerenone that was micronized to provide the following particle size distribution: 10% by weight of the particles under 9 μm, 50% by weight of the particles under 22 μm, and 90% by weight of the particles under 41 μm.
Eplerenone in an amount of 150 mg was weighed and placed into a VanKel intrinsic dissolution cavity. The powder was compressed at 8280 kPa using a Carver press to form tablets. The sample was then mounted on the intrinsic dissolution apparatus. The dissolution medium used was 1% sodium dodecyl sulfate (SDS) in HPLC water. All tests were conducted at 37° C. for 2 hours. […] Samples were drawn at determined intervals for the determination of rate of dissolution. […] The samples were analyzed by UV absorbance detection at 243 nm. Intrinsic dissolution rates were calculated from the slope of the linear portion of the concentration versus time profiles corrected for volume and normalized for the surface area of the dissolution tablet (0.5 cm^2).

Data set [2] in a line: Slurry conversion / thermodynamic stability of Form H versus Form L. On the procedure:
Approximately 150 mg of Form L eplerenone and 150 mg of Form H eplerenone were added to 5 ml ethyl acetate. The resulting slurry was magnetically stirred at 300 rpm overnight. The next day a sample of the resulting solid was collected by filtration.

Data set [3] can be described thus: Aqueous solubility of Form L eplerenone. The following applies: for solubility: phosphate buffer, pH 7, aqueous, pH 7 (100 mM phosphate buffer). On the procedure:
The aqueous solubility of Form L eplerenone was measured at pH 7 (100 mM phosphate buffer) at 5, 25 and 40° C. Approximately 30 mg of Form L eplerenone was mixed with approximately 10 ml of buffer to form a slurry of eplerenone at both 5 and 25° C. Approximately 40 mg of […] eplerenone was mixed with approximately 10 ml of buffer to form a slurry of eplerenone at 40° C. Samples were prepared in duplicate for each condition. The slurries were allowed to equilibrate in water shaker baths at the appropriate temperature and the solutions were analyzed for eplerenone content by ultraviolet visible analysis (245 nm) at time intervals of 1, 5, 12, 19, 27 and 36 days. Data from each temperature were appropriately averaged to determine the solubility of eplerenone at each temperature and are reported in Table 8.

Converted amounts (≈) assume the structure as drawn.

In the case of `COC(=O)[C@@H]1CC2=CC(=O)CC[C@]2(C)[C@@]23O[C@@H]2C[C@@]2(C)C(CC[C@@]24CCC(=O)O4)C13` (some centres unmarked) [Form H eplerenone, methyl hydrogen 9,11-epoxy-17-hydroxy-3-oxopregn-4-ene-7,21-dicarboxylate, γ-lactone], in data set [1] (1% SDS in HPLC water, 37 °C, 2 hours, compressed tablet 0.5 cm^2), the “Intrinsic dissolution rate, comparison in words” value was “faster intrinsic dissolution rate than Form L eplerenone”. Besides, the “Dissolution rate relative to Form L eplerenone (faster by)” value in data set [1] (aqueous medium, temperatures below the enantiotropic transition temperature) is “approximately 30%”. Moreover, the “Solid form after slurry conversion (XRPD)” value in data set [2] (150 mg Form L + 150 mg Form H in 5 ml ethyl acetate, stirred overnight) was “entirely composed of Form L eplerenone”.

For the compound `COC(=O)[C@@H]1CC2=CC(=O)CC[C@]2(C)[C@@]23O[C@@H]2C[C@@]2(C)C(CC[C@@]24CCC(=O)O4)C13` (some centres unmarked) [Form L eplerenone, methyl hydrogen 9,11-epoxy-17-hydroxy-3-oxopregn-4-ene-7,21-dicarboxylate, γ-lactone], the “Solid form of residual solids after equilibration (DSC, TGA)” value in data set [3] (aqueous slurry pH 7, end of the 36 day equilibration) is given as “determined to be Form L eplerenone”. Also, the values for the solubility in data set [3] (5 °C), in data set [3] (25 °C) and in data set [3] (40 °C) were 240 µg/mL (≈ 579 µM), 290 µg/mL (≈ 700 µM) and 390 µg/mL (≈ 941 µM), respectively. In data set [2] (ambient temperatures), the “Thermodynamic stability, comparison of polymorphs” value is “more thermodynamically stable than Form H at ambient temperatures”.
